Test results taken from ChEMBL document CHEMBL5678818, “Discovery of potent SOS1 inhibitors that block RAS activation via disruption of the RAS-SOS1 interaction” (Proc Natl Acad Sci U S A, 2019).

What was measured:
[1] = target: Beta-adrenergic receptor kinase 1 (Homo sapiens) (UniProt P25098); assay: Inhibition of GRK2 (unknown origin) assessed as residual activity at 1000 nM by KINOMEscan analysis relative to control
[2] = target: Casein kinase I isoform alpha (Homo sapiens) (UniProt P48729); assay: Inhibition of CSNK1A1 (unknown origin) assessed as residual activity at 100 nM by KINOMEscan analysis relative to control
Sequence of Casein kinase I isoform alpha (Homo sapiens) (P48729 2-337 limits assumed): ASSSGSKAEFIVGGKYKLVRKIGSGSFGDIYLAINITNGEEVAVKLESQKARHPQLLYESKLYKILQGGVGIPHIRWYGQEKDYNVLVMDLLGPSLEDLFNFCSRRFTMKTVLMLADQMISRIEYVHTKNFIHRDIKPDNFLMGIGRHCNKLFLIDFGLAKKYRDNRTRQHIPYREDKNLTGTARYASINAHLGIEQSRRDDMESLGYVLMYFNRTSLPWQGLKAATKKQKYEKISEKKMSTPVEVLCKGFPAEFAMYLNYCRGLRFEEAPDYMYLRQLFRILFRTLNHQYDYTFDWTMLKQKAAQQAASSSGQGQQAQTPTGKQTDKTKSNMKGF

[3] = tested on: ALK tyrosine kinase receptor (Homo sapiens), Q9UM73 [L1196M]; assay: Inhibition of ALK L1196M mutant (unknown origin) assessed as residual activity at 100 nM by KINOMEscan analysis relative to control
Sequence of ALK tyrosine kinase receptor (Homo sapiens), Q9UM73 [L1196M] (Q9UM73 whole entry L1196M, looked up): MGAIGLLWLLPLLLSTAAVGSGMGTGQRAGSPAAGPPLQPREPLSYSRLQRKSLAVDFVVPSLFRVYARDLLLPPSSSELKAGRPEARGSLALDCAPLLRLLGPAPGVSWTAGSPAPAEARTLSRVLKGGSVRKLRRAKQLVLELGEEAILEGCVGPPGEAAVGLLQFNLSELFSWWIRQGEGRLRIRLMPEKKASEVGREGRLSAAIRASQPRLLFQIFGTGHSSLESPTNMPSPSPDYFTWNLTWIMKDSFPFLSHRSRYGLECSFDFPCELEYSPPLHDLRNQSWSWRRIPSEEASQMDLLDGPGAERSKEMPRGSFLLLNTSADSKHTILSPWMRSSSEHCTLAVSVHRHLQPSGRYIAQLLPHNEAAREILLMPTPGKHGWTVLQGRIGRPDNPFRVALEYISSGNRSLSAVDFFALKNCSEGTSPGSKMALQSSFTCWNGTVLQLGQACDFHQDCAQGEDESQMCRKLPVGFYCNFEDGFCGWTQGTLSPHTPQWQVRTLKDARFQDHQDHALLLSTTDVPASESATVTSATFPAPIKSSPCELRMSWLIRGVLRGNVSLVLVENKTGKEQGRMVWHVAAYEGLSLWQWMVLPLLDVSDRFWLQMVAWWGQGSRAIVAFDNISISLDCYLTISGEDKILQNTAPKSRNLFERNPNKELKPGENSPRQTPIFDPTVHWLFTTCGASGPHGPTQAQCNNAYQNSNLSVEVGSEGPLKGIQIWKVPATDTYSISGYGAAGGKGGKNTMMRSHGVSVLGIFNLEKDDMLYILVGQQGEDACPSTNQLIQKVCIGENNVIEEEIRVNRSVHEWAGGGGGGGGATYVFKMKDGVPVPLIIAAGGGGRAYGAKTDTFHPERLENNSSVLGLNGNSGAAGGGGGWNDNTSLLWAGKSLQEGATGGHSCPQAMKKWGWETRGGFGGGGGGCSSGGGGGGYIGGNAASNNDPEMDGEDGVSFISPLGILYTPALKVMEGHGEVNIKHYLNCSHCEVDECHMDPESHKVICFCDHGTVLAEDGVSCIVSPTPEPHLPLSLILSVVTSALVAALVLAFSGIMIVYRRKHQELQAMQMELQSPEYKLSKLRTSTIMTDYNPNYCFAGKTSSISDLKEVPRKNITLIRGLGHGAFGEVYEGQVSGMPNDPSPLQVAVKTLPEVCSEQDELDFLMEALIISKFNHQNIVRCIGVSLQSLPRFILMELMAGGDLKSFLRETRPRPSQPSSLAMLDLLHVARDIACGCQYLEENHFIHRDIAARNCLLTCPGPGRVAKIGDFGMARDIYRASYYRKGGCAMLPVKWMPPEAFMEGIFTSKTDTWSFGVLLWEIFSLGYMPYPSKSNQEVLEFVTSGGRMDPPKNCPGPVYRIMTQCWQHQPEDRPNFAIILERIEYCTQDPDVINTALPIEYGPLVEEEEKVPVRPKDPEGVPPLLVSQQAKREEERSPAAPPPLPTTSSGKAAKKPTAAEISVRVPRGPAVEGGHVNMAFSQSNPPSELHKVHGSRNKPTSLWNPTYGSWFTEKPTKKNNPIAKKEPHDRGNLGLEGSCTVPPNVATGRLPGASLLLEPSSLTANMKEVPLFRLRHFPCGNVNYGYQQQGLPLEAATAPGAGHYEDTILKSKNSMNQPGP

[4] = target: Calcium/calmodulin-dependent protein kinase type 1 (Homo sapiens) (UniProt Q14012); assay: Inhibition of CAMK1 (unknown origin) assessed as residual activity at 100 nM by KINOMEscan analysis relative to control
Sequence of Calcium/calmodulin-dependent protein kinase type 1 (Homo sapiens) (Q14012 whole entry, looked up): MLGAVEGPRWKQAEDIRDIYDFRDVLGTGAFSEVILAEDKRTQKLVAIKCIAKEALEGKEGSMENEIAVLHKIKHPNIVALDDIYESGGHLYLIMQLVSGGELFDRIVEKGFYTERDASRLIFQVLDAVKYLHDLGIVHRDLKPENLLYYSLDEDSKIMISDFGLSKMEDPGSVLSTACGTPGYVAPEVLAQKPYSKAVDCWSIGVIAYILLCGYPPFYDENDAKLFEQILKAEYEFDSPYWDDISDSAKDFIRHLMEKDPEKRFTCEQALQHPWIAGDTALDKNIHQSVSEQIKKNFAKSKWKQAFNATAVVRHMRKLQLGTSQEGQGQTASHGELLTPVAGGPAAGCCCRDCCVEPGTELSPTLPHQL

[5] = tested on: Tyrosine-protein kinase ABL1 (Homo sapiens), P00519 [Y253F]; assay: Inhibition of phosphorylated ABL1 Y253F mutant (unknown origin) assessed as residual activity at 100 nM by KINOMEscan analysis relative to control
[6] = target: T1, Serine/threonine-protein kinase 36 (Homo sapiens) (UniProt Q9NRP7); assay: Inhibition of STK36 (unknown origin) assessed as residual activity at 100 nM by KINOMEscan analysis relative to control
T1 sequence (whole entry): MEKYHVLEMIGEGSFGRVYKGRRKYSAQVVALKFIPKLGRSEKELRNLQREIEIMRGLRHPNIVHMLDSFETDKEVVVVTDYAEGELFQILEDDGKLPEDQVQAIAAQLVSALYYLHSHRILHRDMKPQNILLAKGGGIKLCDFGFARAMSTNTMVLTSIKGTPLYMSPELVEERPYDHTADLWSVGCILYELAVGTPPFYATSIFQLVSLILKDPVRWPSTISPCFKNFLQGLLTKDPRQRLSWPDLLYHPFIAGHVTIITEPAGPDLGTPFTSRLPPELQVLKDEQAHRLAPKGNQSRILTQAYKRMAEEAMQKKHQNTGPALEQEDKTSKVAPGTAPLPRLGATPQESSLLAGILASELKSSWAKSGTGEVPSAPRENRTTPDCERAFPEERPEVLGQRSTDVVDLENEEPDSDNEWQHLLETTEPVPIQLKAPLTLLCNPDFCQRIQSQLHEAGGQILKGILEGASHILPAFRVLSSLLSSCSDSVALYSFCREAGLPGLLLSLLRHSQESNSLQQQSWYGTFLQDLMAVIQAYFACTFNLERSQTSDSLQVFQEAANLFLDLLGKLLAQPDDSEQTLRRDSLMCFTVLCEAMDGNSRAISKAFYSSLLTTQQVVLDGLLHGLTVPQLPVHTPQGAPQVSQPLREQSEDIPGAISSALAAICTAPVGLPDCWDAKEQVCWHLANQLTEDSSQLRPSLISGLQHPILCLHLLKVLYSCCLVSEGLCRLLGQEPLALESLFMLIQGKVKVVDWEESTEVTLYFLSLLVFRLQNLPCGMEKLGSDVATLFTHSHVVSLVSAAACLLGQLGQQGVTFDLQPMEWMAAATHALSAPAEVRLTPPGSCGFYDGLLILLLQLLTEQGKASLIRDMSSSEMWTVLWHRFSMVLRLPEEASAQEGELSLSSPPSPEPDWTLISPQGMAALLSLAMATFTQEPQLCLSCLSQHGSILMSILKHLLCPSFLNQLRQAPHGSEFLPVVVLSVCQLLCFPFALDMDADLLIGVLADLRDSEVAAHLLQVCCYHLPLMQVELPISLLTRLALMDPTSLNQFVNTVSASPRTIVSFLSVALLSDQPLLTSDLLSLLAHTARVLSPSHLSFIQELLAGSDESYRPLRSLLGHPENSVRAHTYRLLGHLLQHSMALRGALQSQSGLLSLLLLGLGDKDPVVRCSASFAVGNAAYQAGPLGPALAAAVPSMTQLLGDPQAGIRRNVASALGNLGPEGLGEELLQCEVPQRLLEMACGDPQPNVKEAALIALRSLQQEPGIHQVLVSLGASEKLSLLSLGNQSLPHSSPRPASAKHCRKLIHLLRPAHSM

[7] = target: T2, Mitogen-activated protein kinase 15 (Homo sapiens) (UniProt Q8TD08); assay: Inhibition of ERK8 (unknown origin) assessed as residual activity at 100 nM by KINOMEscan analysis relative to control
T2 sequence (whole entry): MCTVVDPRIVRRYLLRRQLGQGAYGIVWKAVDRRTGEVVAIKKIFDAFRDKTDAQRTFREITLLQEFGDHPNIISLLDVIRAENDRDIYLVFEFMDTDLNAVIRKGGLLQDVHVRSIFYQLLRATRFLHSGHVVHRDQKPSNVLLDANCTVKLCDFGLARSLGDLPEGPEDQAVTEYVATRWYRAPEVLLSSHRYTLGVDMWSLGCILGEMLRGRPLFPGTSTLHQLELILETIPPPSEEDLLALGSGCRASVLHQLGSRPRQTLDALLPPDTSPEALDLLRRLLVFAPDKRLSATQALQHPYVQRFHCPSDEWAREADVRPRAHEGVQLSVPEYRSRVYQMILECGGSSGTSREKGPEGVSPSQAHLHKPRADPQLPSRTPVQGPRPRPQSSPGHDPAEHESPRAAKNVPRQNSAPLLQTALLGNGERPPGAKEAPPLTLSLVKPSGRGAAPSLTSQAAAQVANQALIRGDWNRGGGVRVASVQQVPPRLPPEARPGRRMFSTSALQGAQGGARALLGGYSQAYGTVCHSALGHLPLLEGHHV

[8] = tested on: Receptor-type tyrosine-protein kinase FLT3 (Homo sapiens), P36888 [UNDEFINED MUTATION]; assay: Inhibition of FLT3 ITD mutant (unknown origin) assessed as residual activity at 100 nM by KINOMEscan analysis relative to control
Sequence of Receptor-type tyrosine-protein kinase FLT3 (Homo sapiens), P36888 [UNDEFINED MUTATION] (P36888 whole entry, looked up, change not shown): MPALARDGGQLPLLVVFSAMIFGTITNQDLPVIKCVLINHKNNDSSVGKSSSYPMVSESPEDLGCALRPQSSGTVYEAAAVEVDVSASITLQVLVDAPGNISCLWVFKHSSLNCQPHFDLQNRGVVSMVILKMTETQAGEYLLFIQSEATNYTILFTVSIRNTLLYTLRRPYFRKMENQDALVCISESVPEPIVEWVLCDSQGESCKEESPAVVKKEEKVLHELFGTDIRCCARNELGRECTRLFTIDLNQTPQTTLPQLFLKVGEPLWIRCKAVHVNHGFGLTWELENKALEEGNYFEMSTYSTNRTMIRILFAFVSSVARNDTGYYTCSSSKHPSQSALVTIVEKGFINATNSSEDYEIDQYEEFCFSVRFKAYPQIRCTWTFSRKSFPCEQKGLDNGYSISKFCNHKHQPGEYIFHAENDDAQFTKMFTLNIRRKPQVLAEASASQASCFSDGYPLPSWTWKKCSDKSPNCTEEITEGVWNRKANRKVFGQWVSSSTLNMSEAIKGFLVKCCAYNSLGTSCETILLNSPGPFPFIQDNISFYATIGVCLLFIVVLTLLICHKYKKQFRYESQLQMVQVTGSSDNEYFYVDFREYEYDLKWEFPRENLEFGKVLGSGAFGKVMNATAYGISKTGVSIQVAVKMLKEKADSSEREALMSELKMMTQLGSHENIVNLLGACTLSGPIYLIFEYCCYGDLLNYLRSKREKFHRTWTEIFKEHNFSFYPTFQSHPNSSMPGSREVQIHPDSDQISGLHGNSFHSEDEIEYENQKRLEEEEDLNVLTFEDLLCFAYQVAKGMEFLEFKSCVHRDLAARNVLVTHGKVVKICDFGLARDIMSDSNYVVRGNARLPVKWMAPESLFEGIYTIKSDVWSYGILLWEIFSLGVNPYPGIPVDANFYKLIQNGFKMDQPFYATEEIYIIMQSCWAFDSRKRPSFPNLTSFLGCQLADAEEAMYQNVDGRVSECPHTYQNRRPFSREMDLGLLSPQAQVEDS

[9] = target: Serine/threonine-protein kinase 38-like (Homo sapiens) (UniProt Q9Y2H1); assay: Inhibition of NDR2 (unknown origin) assessed as residual activity at 100 nM by KINOMEscan analysis relative to control
[10] = target: Calcium/calmodulin-dependent protein kinase type 1G (Homo sapiens) (UniProt Q96NX5); assay: Inhibition of CAMK1G (unknown origin) assessed as residual activity at 100 nM by KINOMEscan analysis relative to control
Sequence of Calcium/calmodulin-dependent protein kinase type 1G (Homo sapiens) (Q96NX5 whole entry): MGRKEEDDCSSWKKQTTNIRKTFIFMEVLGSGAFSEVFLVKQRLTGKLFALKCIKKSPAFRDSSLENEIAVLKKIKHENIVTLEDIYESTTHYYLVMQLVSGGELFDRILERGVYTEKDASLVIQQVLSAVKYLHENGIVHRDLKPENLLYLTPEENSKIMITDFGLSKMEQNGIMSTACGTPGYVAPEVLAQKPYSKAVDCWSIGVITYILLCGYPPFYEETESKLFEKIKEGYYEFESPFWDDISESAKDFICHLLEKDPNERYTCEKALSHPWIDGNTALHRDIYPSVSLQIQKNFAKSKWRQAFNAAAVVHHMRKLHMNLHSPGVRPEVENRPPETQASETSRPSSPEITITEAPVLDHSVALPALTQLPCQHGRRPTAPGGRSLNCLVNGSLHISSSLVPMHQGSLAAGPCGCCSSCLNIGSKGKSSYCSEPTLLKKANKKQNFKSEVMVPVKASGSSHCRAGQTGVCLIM

[11] = target: Aurora kinase B (Homo sapiens) (UniProt Q96GD4); assay: Inhibition of AURKB (unknown origin) assessed as residual activity at 100 nM by KINOMEscan analysis relative to control
Sequence of Aurora kinase B (Homo sapiens) (Q96GD4 whole entry): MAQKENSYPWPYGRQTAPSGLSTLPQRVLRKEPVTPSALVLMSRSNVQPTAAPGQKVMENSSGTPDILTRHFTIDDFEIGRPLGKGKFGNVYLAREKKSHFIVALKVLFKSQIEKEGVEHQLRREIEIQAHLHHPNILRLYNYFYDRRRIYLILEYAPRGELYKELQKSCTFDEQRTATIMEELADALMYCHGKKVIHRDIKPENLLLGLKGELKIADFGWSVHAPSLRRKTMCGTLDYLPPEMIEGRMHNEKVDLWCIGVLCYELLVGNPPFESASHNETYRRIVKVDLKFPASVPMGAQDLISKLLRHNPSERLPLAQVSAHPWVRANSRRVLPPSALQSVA

Sequence of Beta-adrenergic receptor kinase 1 (Homo sapiens) (P25098 whole entry, canonical isoform): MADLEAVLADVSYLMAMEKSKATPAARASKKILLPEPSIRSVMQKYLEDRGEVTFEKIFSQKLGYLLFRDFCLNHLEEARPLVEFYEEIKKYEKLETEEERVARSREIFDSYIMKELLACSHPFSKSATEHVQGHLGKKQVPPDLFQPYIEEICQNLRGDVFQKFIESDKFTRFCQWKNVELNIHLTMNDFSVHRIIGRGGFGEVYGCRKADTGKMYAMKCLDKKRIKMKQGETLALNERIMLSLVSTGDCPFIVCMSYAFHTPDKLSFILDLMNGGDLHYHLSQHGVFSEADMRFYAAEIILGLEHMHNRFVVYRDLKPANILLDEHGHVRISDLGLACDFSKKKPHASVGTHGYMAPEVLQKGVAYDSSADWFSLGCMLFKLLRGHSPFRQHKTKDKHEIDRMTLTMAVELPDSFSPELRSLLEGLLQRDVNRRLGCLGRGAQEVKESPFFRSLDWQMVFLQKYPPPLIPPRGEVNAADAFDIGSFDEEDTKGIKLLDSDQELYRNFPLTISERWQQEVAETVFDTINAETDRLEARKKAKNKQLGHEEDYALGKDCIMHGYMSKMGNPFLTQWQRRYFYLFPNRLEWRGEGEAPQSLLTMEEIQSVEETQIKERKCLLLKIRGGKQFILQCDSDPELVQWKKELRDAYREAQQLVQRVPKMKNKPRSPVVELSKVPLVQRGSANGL

Compound | Activity [1] | Activity [2] | Activity [3] | Activity [4] | Activity [5] | Activity [6] | Activity [7] | Activity [8] | Activity [9] | Activity [10] | Activity [11]
COc1cc2nc(C)nc(N[C@H](C)c3cccc(-c4cn[nH]c4)c3)c2cc1OC | 62% | – | – | – | – | – | – | – | – | – | –
COc1cc2ncnc(N[C@H](C)c3cccc4ccccc34)c2cc1OC | – | 93% | 66% | 100% | 98% | 80% | 88% | 100% | 49% | 72% | 96%
